The test system of data set [1] is ovariectomated rats. The experiment in a line: Oral estrogenic effects: uterus weights in ovariectomated rats. The class given is in vivo, rat. The following applies: Experiment C, 10 μg/animal/day p.o. d1-d7. The source says: (§1) The laboratory animals, adult female rats (breeder: HSD/WIN:WU) were ovariectomated on day 14. Treatment started two weeks later by a single oral application per day of the respective test substance. The dosages given for esters refer to the steroid portion of the substances. The tests were made in three groups (A, B, C) at various points in time. This is why there is a deviation in control group values. The tests of series A, B, and C can therefore be compared among each other if the values for the respective control groups are taken into account.
(§2) The procedure of allocating animals to groups was randomized. The experiment was carried out as a block test. The animals were weighed at the beginning and at the end of the experiment.
(§3) The start of treatment was defined as day 1 (=d1), treatment was finished on day 7 (=d7); the animals were killed on day 8, various organs (uteri, adrenal glands, liver) were removed, weighed and deep-frozen (−196° C.) for further examination.

Data set [2] concerns ovariectomated rats. The experiment in a line: Oral estrogenic effects: weights of adrenal glands in ovariectomated rats. The following applies: Experiment C, 10 μg/animal/day p.o. d1-d7. The class given is in vivo, rat.
Text: as §1, §2, §3

In general, melting point refers to the temperature of the solid-liquid transition. With `CCN(CC)S(=O)(=O)Oc1ccc2c(c1)CC[C@@H]1[C@@H]2CC[C@]2(C)[C@@H](O)[C@H](O)C[C@@H]12` [J 984, 16α,17β-Dihydroxy-estra-1,3,5(10)-trien-3-yl N,N-diethyl-sulfamate], the melting point lay within 121 to 124 °C. In addition, the “Uterus weights (mean value)” value with ovariectomated rats [1] was 245.63 mg. Moreover, the “Weights of adrenal glands (mean value)” value in the data set on ovariectomated rats [2] was found to be 59.3 mg.
Turning to `CN(C)S(=O)(=O)Oc1ccc2c(c1)CC[C@@H]1[C@@H]2CC[C@]2(C)[C@@H](O)[C@H](O)C[C@@H]12` [J 989, 16α,17β-Dihydroxy-estra-1,3,5(10)-trien-3-yl N,N-dimethyl-sulfamate], the melting point is 180 to 181 °C. Also, the “Uterus weights (mean value)” value with ovariectomated rats [1] came out at 182.79 mg. Also, in the data set on ovariectomated rats [2], the “Weights of adrenal glands (mean value)” value is reported as 52.8 mg.
